Experimental data from the NIST ThermoML archive (doi:10.1021/je3003783).
Numbers after ± are expanded uncertainties.

Conditions: 101.33 kPa, Liquid, Vibrating tube method

SMILES	mass density (298.15 K) [kg/m3]	mass density (323.15 K) [kg/m3]	mass density (348.15 K) [kg/m3]	mass density (363.15 K) [kg/m3]
CCCCCCCC[n+]1ccn(C)c1.[Cl-] [1-methyl-3-octylimidazolium chloride]	1012.35 ± 0.31	998.05 ± 0.3	983.99 ± 0.3	975.67 ± 0.3
CCCCCCn1cc[n+](C)c1.[Cl-] [1-hexyl-3-methylimidazolium chloride]	1040.92 ± 0.34	1026.73 ± 0.32	1012.81 ± 0.31	1004.49 ± 0.3
CCCCn1cc[n+](C)c1.[Cl-] [1-butyl-3-methylimidazolium chloride]	1081.59 ± 0.38	1067.28 ± 0.37	1053.35 ± 0.35	1045.06 ± 0.34
